Entries after “also recorded” stand apart in the source; their conditions may differ.
How the values were obtained:
MAO B = molecular target: T1, MAO B (Homo sapiens, UniProt P27338); assay: Autoradiography of [^18F]compound 13 on human brain sections (Alzheimer's disease), blocking with MAO B inhibitors; format: binding
T1 construct: investigated on human brain sections from patients with Alzheimer's disease and normal controls; from tissue; host or cells: human brain sections (Alzheimer's disease patients and normal controls)
T1 sequence (P27338 1-520): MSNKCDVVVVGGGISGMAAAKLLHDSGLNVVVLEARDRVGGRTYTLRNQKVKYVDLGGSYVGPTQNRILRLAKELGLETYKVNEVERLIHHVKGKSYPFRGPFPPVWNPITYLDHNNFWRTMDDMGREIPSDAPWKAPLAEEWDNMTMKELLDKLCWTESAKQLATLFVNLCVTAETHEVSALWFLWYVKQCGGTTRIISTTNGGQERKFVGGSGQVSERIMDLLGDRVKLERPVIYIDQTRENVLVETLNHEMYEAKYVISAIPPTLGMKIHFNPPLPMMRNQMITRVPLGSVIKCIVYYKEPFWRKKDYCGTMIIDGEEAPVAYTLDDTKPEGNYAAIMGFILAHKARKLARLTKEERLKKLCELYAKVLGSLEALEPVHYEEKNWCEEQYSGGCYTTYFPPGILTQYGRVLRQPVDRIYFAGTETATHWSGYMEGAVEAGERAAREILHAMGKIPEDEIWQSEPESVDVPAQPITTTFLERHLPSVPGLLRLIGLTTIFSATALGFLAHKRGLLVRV
Description: Thereafter, the slides were removed and brought to room temperature. […] The sections were dipped two times into ice cold distilled water, dried at room temperature and exposed to PhosphorImanger plates (FUJI BAS 5000) over night. For detection of the specificity of the signals an excess (10 μM) of Deprenyl, Pargylin (both for MAO B) and Clorgyline (for MAO A), respectively, was used. After exposure, the sections were immunohistochemically stained using a standard protocol with an anti-GFAP antibody to detect reactive astrocytes. Amyloid B plaques were detected with BAY 949172 (Rowe CC et al. Lancet Neutol 2008; 7: 129-135) using the binding protocol as described above.

[1] = PET brain uptake (time activity curves, SUV) in cynomolgus monkey; conditions: same monkey
[2] = Plasma radioactivity and plasma metabolites in cynomolgus monkey; format: in vivo
Text: Plasma radioactivity profiles have been monitored over time. […] In addition, metabolites occurring in plasma over time have been monitored (FIGS. 8 and 9) for both ligands.

[3] = Biodistribution in NMRI mice (gamma counter); format: in vivo; conditions: 0.178 MBq injected, decay corrected
Description: For each time point 3 mice have been used. The mice were injected each with 0.178 MBq[^18F]compound 13. After the respective time points the mice were sacrificed, the organs taken out and measured in a gamma counter. The results were decay corrected.

[4] = reported in the literature; cited from earlier work

| Compound | relation of autoradiographic signal density and intensity to amyloid β pathology (MAO B; Alzheimer's disease brain slices, amyloid detected with BAY 949172) | autoradiographic signal blocked with deprenyl (MAO B; human Alzheimer's disease brain slices, 10 Bq/μl tracer, excess (10 μM) of Deprenyl) | autoradiographic signal blocked with pargylin (MAO B; human Alzheimer's disease brain slices, 10 Bq/μl tracer, excess (10 μM) of Pargylin) | relation of autoradiographic signal to reactive astrocytes (GFAP immunoreactivity) (MAO B; human brain slice from a patient with AD, anti-GFAP staining) | uptake and enrichment in specific regions, e.g. striatum, higher than [^11C]Deprenyl [1] | metabolic stability compared to [^11C]Deprenyl (and compound 5) ([2]; plasma metabolites) | generation of metabolite b in plasma (level) ([2]; plasma over time) | brain uptake of radioactivity ([3]; 2 min p.i.) | radioactivity in brain ([3]; 30 min p.i.) | radioactivity in brain ([3]; after 4 hours) | degradation to metabolite [4] |
| --- | --- | --- | --- | --- | --- | --- | --- | --- | --- | --- | --- |
| C#CCN(C)[C@H](C[18F])Cc1ccccc1 [[^18F]compound 13, N-[(2S)-1-(^18F)fluoro-3-phenylpropan-2-yl]-N-methylprop-2-yn-1-amine] | corresponds with the amyloid β plaque load | could be blocked; also recorded: completely blocked | could be blocked | correspondence of the autoradiographic signal to reactive astrocytes is demonstrated | about 10% | improved metabolic stability; also recorded: more stable | around 10% | 7.5 ± 0.04 % ID/g | 2.10±0.33 % ID/g | 1.34±0.26 % ID/g |  |
| C#CCN(C)CCCCCC[18F] [compound 5] |  |  |  |  |  |  |  |  |  |  | degraded quickly towards a polar [^18F]-labelled metabolite |
